Read-outs that look alike come from different tables or passages of the source. Blank lines part the entries; values can stand above or below the molecule they belong to.
Key:
HDAC8 [1] = molecular target: T1, HDAC8 (Homo sapiens, UniProt Q9BY41); experiment: HDAC8 degradation in Jurkat cells, Western blot; conditions: for inhibition at 0.1 µM / Dmax: Jurkat; for inhibition at 0.1 µM: read-out: Degradation (%) at 100 nM (HDAC8); for Dmax: read-out: Dmax (HDAC8 degradation); for DC50: read-out: DC50 (HDAC8 degradation)
T1 sequence (Q9BY41 1-377): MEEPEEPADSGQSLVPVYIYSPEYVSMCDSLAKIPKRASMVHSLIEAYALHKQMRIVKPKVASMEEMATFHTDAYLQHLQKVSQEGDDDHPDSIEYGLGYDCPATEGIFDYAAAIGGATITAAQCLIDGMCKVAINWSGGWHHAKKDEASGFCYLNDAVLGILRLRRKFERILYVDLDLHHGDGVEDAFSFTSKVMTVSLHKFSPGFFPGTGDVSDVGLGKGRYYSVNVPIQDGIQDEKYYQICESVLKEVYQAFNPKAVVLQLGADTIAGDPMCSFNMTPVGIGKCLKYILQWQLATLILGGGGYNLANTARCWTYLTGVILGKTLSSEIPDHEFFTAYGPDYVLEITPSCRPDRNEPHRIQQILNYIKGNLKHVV

A549 cells = experiment: Cell viability MTS assay, A549; type: cell-based; conditions: Homo sapiens, 72 h, read-out: IC50 antiproliferative, A549
Procedure: (§1) MTS assay was used to measure the cell viability. For single treatment, Jurkat, THP-1 and HEL (8000 cells/well), HCT116 and A549 (2000 cells/well) were seeded in 96-well plates in 100 μL complete medium. After overnight incubation, 50 μL of media containing various concentrations of compounds or the vehicle were added to each well. For cotreatment, cells were seeded in 96-well plates in 50 μL complete medium. After overnight incubation, 50 μL of Z-VAD-FMK, Nec-1, Fer-1, CQ, and other indicated compounds were added to each well. One hour later, 50 μL of media containing various concentrations of compounds were added to each well. After 72 h of treatment, 20 μL of CellTiter 96 AQueous One Solution reagent (Promega, Madison, USA) was added to each well according to manufacturer’s protocol. Plates were incubated at 37 °C for 1–2 h. The absorbance was determined at a wavelength of 490 nm using a Synergy H1 plate reader (Biotek, Winooski, VT, USA).

HDAC8 [2] = molecular target: T1, HDAC8; experiment: In vitro HDAC8 deacetylase inhibition assay
Procedure: After a following incubation at 37 °C for 20 min, the fluorescence was measured on a Synergy H1 Platereader (BioTek, USA) with an excitation wavelength of 370 nm and an emission wavelength of 460 nm. Nonlinear regression was used for the determination of the IC50 of each compound.

THP-1 cells = experiment: Cell viability MTS assay, THP-1; type: cell-based; conditions: Homo sapiens, 72 h, read-out: IC50 antiproliferative, THP-1
Procedure: as §1

Jurkat cells = experiment: Cell viability MTS assay, Jurkat; type: cell-based; conditions: for IC50: Homo sapiens, Jurkat, 72 h, MTS assay, read-out: IC50 antiproliferative, Jurkat
Procedure: as §1

HCT116 cells = experiment: Cell viability MTS assay, HCT116; type: cell-based; conditions: Homo sapiens, HCT-116, 72 h, read-out: IC50 antiproliferative, HCT116
Procedure: as §1

HDAC8 [3] = molecular target: T1, HDAC8; design: endogenous in cells; host or cells: HCT116; method as in PMID 35759908; conditions: HCT116 cells; cited from earlier work

- inhibition at 0.1 µM (HDAC8 [1]; 6 h): 48 ± 4%
SMILES: CCCCCCNNC(=O)c1ccc(CNC(=O)CCCCCCCC(=O)N[C@H](C(=O)N2C[C@H](O)C[C@H]2C(=O)NCc2ccc(-c3scnc3C)cc2)C(C)(C)C)cc1 [Z11, N^1-(4-(2-Hexylhydrazine-1-carbonyl)benzyl)-N^9-((S)-1-((2S,4R)-4-hydroxy-2-((4-(4-methylthiazol-5-yl)benzyl)carbamoyl)pyrrolidin-1-yl)-3,3-dimethyl-1-oxobutan-2-yl)nonanediamide]

- inhibition at 0.1 µM (HDAC8 [1]; 6 h): 65 ± 5%
SMILES: CCCCCCNNC(=O)c1ccc(CNC(=O)CCCCCCCCCCC(=O)N[C@H](C(=O)N2C[C@H](O)C[C@H]2C(=O)NCc2ccc(-c3scnc3C)cc2)C(C)(C)C)cc1 [Z13, N^1-(4-(2-Hexylhydrazine-1-carbonyl)benzyl)-N^12-((S)-1-((2S,4R)-4-hydroxy-2-((4-(4-methylthiazol-5-yl)benzyl)carbamoyl)pyrrolidin-1-yl)-3,3-dimethyl-1-oxobutan-2-yl)dodecanediamide]

- inhibition at 0.1 µM (HDAC8 [1]; 6 h): 17 ± 8%
SMILES: CCCCCCNNC(=O)c1ccc(CNC(=O)CCCCC(=O)N[C@H](C(=O)N2C[C@H](O)C[C@H]2C(=O)NCc2ccc(-c3scnc3C)cc2)C(C)(C)C)cc1 [Z9, N^1-(4-(2-Hexylhydrazine-1-carbonyl)benzyl)-N^6-((S)-1-((2S,4R)-4-hydroxy-2-((4-(4-methylthiazol-5-yl)benzyl)carbamoyl)pyrrolidin-1-yl)-3,3-dimethyl-1-oxobutan-2-yl)adipamide]

- inhibition at 0.1 µM (HDAC8 [1]; 6 h): 20 ± 1%
SMILES: CCCCCCNNC(=O)c1ccc(CNC(=O)CCC(=O)N[C@H](C(=O)N2C[C@H](O)C[C@H]2C(=O)NCc2ccc(-c3scnc3C)cc2)C(C)(C)C)cc1 [Z8, N^1-(4-(2-Hexylhydrazine-1-carbonyl)benzyl)-N^4-((S)-1-((2S,4R)-4-hydroxy-2-((4-(4-methylthiazol-5-yl)benzyl)carbamoyl)pyrrolidin-1-yl)-3,3-dimethyl-1-oxobutan-2-yl)succinimide]

- inhibition at 0.1 µM (HDAC8 [1]; 6 h): 83 ± 2%
- Dmax (HDAC8 [1]): 93%
- DC50 (HDAC8 [1]; Jurkat cells, 6 h): 0.0621 µM
SMILES: CCCCCCNNC(=O)c1ccc(CNC(=O)CCCCCCCCC(=O)N[C@H](C(=O)N2C[C@H](O)C[C@H]2C(=O)NCc2ccc(-c3scnc3C)cc2)C(C)(C)C)cc1 [Z12, N^1-(4-(2-Hexylhydrazine-1-carbonyl)benzyl)-N^10-((S)-1-((2S,4R)-4-hydroxy-2-((4-(4-methylthiazol-5-yl)benzyl)carbamoyl)pyrrolidin-1-yl)-3,3-dimethyl-1-oxobutan-2-yl)decanediamide]

- inhibition at 0.1 µM (HDAC8 [1]; 6 h): 14 ± 5%
SMILES: CCCCCCNNC(=O)c1ccc(CNC(=O)CCCCCCC(=O)N[C@H](C(=O)N2C[C@H](O)C[C@H]2C(=O)NCc2ccc(-c3scnc3C)cc2)C(C)(C)C)cc1 [Z10, N^1-(4-(2-Hexylhydrazine-1-carbonyl)benzyl)-N^8-((S)-1-((2S,4R)-4-hydroxy-2-((4-(4-methylthiazol-5-yl)benzyl)carbamoyl)pyrrolidin-1-yl)-3,3-dimethyl-1-oxobutan-2-yl)octanediamide]

Continued, molecule first:

SMILES: CCCCCCNNC(=O)c1ccc(CNC(=O)CCCCCNc2cccc3c2C(=O)N(C2CCC(=O)NC2=O)C3=O)cc1 (stereo not drawn) [Z3, 6-((2-(2,6-Dioxopiperidin-3-yl)-1,3-dioxoisoindolin-4-yl)amino)-N-(4-(2-hexylhydrazine-1-carbonyl)benzyl)hexanamide]
- inhibition at 0.1 µM (HDAC8 [1]; 6 h): 44 ± 13%

SMILES: CCCCCCNNC(=O)c1ccc(CNC(=O)CN2CCC(c3ccc(NC(C)=O)cc3)CC2)cc1 [Compound 32, 2-(4-(4-Acetamidophenyl)piperidin-1-yl)-N-(4-(2-hexylhydrazine-1-carbonyl)benzyl)acetamide]
- IC50 (A549 cells): 12 ± 1.6 µM
- IC50 (HDAC8 [2]): 16.6 ± 2.8 µM
- IC50 (THP-1 cells): 3.4 ± 0.6 µM
- IC50 (Jurkat cells): 3 ± 0.3 µM
- HDAC8 degradation by control compounds (in words) (HDAC8 [1]; Jurkat cells, 6 h): Neither NC-Z16 nor 32 induced HDAC8 degradation
- IC50 (HCT116 cells): 2.8 ± 0.3 µM

SMILES: CCCCCCNNC(=O)c1ccc(CNC(=O)CCCCCCCNc2cccc3c2C(=O)N(C2CCC(=O)NC2=O)C3=O)cc1 (stereo not drawn) [Z5, 8-((2-(2,6-Dioxopiperidin-3-yl)-1,3-dioxoisoindolin-4-yl)amino)-N-(4-(2-Hexylhydrazine-1-carbonyl)benzyl)octanamide]
- inhibition at 0.1 µM (HDAC8 [1]; 6 h): 43 ± 17%

SMILES: O=C(CCCCOc1cccc(CCNC(=O)c2cccc(C(=O)NO)c2)c1)NCCCCCCNc1cccc2c1C(=O)N(C1CCC(=O)NC1=O)C2=O (stereo not drawn) [PROTAC 2]
- DC50 (HDAC8 [3]): 0.147 µM

SMILES: CCCCCCNNC(=O)c1ccc(CNCC2CCN(c3ccc4c(c3)C(=O)N(C3CCC(=O)NC3=O)C4=O)CC2)cc1 (stereo not drawn) [Z15, 4-((((1-(2-(2,6-Dioxopiperidin-3-yl)-1,3-dioxoisoindolin-5-yl)piperidin-4-yl)methyl)amino)methyl)-N′-hexylbenzohydrazide]
- inhibition at 0.1 µM (HDAC8 [1]; 6 h): 25 ± 2%

SMILES: CCCCCCNNC(=O)c1ccc(CNC(=O)CCCCCCCCCCCNc2cccc3c2C(=O)N(C2CCC(=O)NC2=O)C3=O)cc1 (stereo not drawn) [Z7, 12-((2-(2,6-Dioxopiperidin-3-yl)-1,3-dioxoisoindolin-4-yl)amino)-N-(4-(2-Hexylhydrazine-1-carbonyl)benzyl)dodecanamide]
- Degradation (%) at 100 nM (HDAC8) (HDAC8 [1]; Jurkat cells, 100 nM, 6 h, Western blot, n.d = no degradation): did not trigger visible degradation

SMILES: CCCCCCNNC(=O)c1cccc(NCc2ccc(C(=O)N3CCC(c4ccc(NC5CCC(=O)NC5=O)cc4)CC3)cc2)c1 (stereo not drawn) [Z18, 3-((4-(4-(4-((2,6-Dioxopiperidin-3-yl)amino)phenyl)piperidine-1-carbonyl)benzyl)amino)-N′-hexylbenzohydrazide]
- inhibition at 0.1 µM (HDAC8 [1]; 6 h): 13 ± 4%

SMILES: CCCCCCNNC(=O)c1ccc(CNC(=O)CCCNc2cccc3c2C(=O)N(C2CCC(=O)NC2=O)C3=O)cc1 (stereo not drawn) [Z1, 4-((2-(2,6-Dioxopiperidin-3-yl)-1,3-dioxoisoindolin-4-yl)amino)-N-(4-(2-hexylhydrazine-1-carbonyl)benzyl)butanamide]
- inhibition at 0.1 µM (HDAC8 [1]; 6 h): 73 ± 1%

SMILES: CCCCCCNNC(=O)c1ccc(CNC(=O)CCCCCCCCCNc2cccc3c2C(=O)N(C2CCC(=O)NC2=O)C3=O)cc1 (stereo not drawn) [Z6, 10-((2-(2,6-Dioxopiperidin-3-yl)-1,3-dioxoisoindolin-4-yl)amino)-N-(4-(2-hexylhydrazine-1-carbonyl)benzyl)decanamide]
- inhibition at 0.1 µM (HDAC8 [1]; 6 h): 43 ± 3%

SMILES: CCCCCCNNC(=O)c1ccc(CNC(=O)CCCCNc2cccc3c2C(=O)N(C2CCC(=O)NC2=O)C3=O)cc1 (stereo not drawn) [Z2, 5-((2-(2,6-Dioxopiperidin-3-yl)-1,3-dioxoisoindolin-4-yl)amino)-N-(4-(2-hexylhydrazine-1-carbonyl)benzyl)pentanamide]
- inhibition at 0.1 µM (HDAC8 [1]; 6 h): 62 ± 2%

SMILES: CCCCCCNNC(=O)c1ccc(CNC(=O)CCCCCCNc2cccc3c2C(=O)N(C2CCC(=O)NC2=O)C3=O)cc1 (stereo not drawn) [Z4, 7-((2-(2,6-Dioxopiperidin-3-yl)-1,3-dioxoisoindolin-4-yl)amino)-N-(4-(2-hexylhydrazine-1-carbonyl)benzyl)heptanamide]
- inhibition at 0.1 µM (HDAC8 [1]; 6 h): 90 ± 10%
- Dmax (HDAC8 [1]): 88%
- DC50 (HDAC8 [1]; Jurkat cells, 6 h): 0.0167 µM

SMILES: Nc1cccc2c1C(=O)N(C1CCC(=O)NC1=O)C2=O (stereo not drawn) [Poma, pomalidomide]
- IC50 (A549 cells): > 33.3 µM
- IC50 (THP-1 cells): > 33.3 µM
- IC50 (Jurkat cells): > 33.3 µM
- IC50 (HCT116 cells): > 33.3 µM

SMILES: CCCCCCNNC(=O)c1ccc(CNC(=O)C2CCN(c3ccc4c(c3)C(=O)N(C3CCC(=O)NC3=O)C4=O)CC2)cc1 (stereo not drawn) [Z14, 1-(2-(2,6-Dioxopiperidin-3-yl)-1,3-dioxoisoindolin-5-yl)-N-(4-(2-hexylhydrazine-1-carbonyl)benzyl)piperidine-4-carboxamide]
- inhibition at 0.1 µM (HDAC8 [1]; 6 h): 34 ± 3%

SMILES: COc1ccc(Cn2ccc3ccc(C(=O)NO)cc32)cc1 [PCI-34051]
- IC50 (A549 cells): > 33.3 µM
- IC50 (THP-1 cells): > 33.3 µM
- IC50 (Jurkat cells): 4.5 ± 0.7 µM
- decreased antiproliferative potency after Z16 pretreatment compared to single treatment (Jurkat cells; Jurkat pretreated with 50 nM Z16 for 2 h, then 72 h, MTS): about 5 fold
- IC50 (HCT116 cells): 21.9 ± 2.8 µM

Reference: PMC11345830, “Exploration of Hydrazide-Based HDAC8 PROTACs for the Treatment of Hematological Malignancies and Solid Tumors” (Journal of Medicinal Chemistry, 2024)
